From patent publication US10624972B2, “Conjugates for treating diseases” (priority 2015, dated 2020)
“Also recorded” adds a separate entry of the source. Like-named read-outs stand apart in the source and are kept apart here.

Columns and labels:
KB cells = test: cells; assay type: cell-based, Human
Experimental: METHOD. Inhibition of Cellular DNA Synthesis. The conjugates described herein were evaluated using an in vitro cytotoxicity assay that predicted the ability of the drug to inhibit the growth of the corresponding targeted cells, such as, but not limited to the following
It is to be understood that the choice of cell type can be made on the basis of the susceptibility of those selected cells to the drug that forms the conjugate, and the relative expression of the cell surface receptor or target antigen. The test conjugates were conjugates of a cell surface receptor or target antigen binding compound and PBD prodrugs, poly-PBD prodrugs, and mixed PBDs, as described herein. The test cells were exposed to varying concentrations of the conjugates, and optionally also in the absence or presence of at least a 100-fold excess of the unconjugated cell surface receptor or target antigen binding compound for competition studies to assess activity as being specific to the cell surface receptor or target antigen.
EXAMPLE. Conjugates of PBD prodrugs, poly-PBD prodrugs, and mixed PBDs described herein were active against KB cells. The activity was mediated by the folate receptor as indicated by competition experiments using co-administered folic acid. KB cells were exposed for up to 7 h at 37° C. to the indicated concentrations of folate-drug conjugate in the absence or presence of at least a 100-fold excess of folic acid. The cells were then rinsed once with fresh culture medium and incubated in fresh culture medium for 72 hours at 37° C. Cell viability was assessed using a ^3H-thymidine incorporation assay. For conjugates described herein, dose-dependent cytotoxicity was generally measurable, and in most cases, the IC50 values (concentration of drug conjugate required to reduce ^3H-thymidine incorporation into newly synthesized DNA by 50%) were in the low nanomolar range.

[1] = Toxicity as measured by weight loss (test animal total body weight); assay type: in vivo, mice
Experimental: METHOD. Toxicity as Measured by Weight Loss. The percentage weight change of the test animals was determined on selected days post-tumor inoculation (PTI), and during dosing. The results were graphed.

MDA-MB-231 tumors = test: TNBC tumor assay (MDA-MB-231 xenograft); assay type: in vivo, nu/nu mice; conditions: 2 μmol/kg TIW for two weeks
Source text: General. […] A PR is observed where tumor volume, as defined herein, decreases from a previous high during the observation period, though regrowth may occur. A CR is observed where tumor volume, as defined herein, decreases to zero during the observation period, though regrowth may occur.
METHOD EXAMPLE. TNBC Tumor Assay. Triple negative breast cancer (TNBC) is a subtype characterized by lack of gene expression for estrogen, progesterone and Her2/neu. TNBC is difficult to treat, and the resulting death rate in patients is reportedly disproportionately higher than for any other subtype of breast cancer. A TNBC xenograft model was generated in an analogous way to the KB and M109 models described herein by implanting MDA-MB-231 breast cancer cells in nu/nu mice. […] Test animals (5/group) were injected intravenously, generally three times a week (TIW), for 2-3 weeks with varying doses, such as with 1 μmol/kg to 5 μmol/kg, of the drug delivery conjugate or with an equivalent dose volume of PBS (control), unless otherwise indicated. Dosing solutions were prepared fresh each day in PBS and administered through the lateral tail vein of the mice.

KB-CR2000 tumors = test: Cisplatin therapy of cisplatin-resistant KB-CR2000 tumors; assay type: in vivo; conditions: high, toxic dose of cisplatin
Source text: METHOD. Human cisplatin-resistant cell line.

Question: For `C=C1C[C@H]2C(=O)Nc3cc(OCCCCCOc4cc(N)c(C(=O)N5CC(=C)C[C@H]5C5OCCN5C(=O)OCCSSC[C@H](NC(=O)[C@H](CC(=O)O)NC(=O)[C@H](CC(=O)O)NC(=O)[C@H](CCCNC(=N)N)NC(=O)[C@H](CC(=O)O)NC(=O)CC[C@H](NC(=O)c5ccc(NCc6cnc7nc(N)[nH]c(=O)c7n6)cc5)C(=O)O)C(=O)O)cc4OC)c(OC)cc3C(=O)N2C1` (stereo partly shown) [EC1744], which IC50 (KB cells; 3 h) is on record?
Answer: 1.2 nM

Question: And the “toxicity as evidenced by test animal total body weight” value ([1]; KB tumor study, 2 μmol/kg TIW for two weeks)?
Answer: Toxicity was not observed

Question: What about the “toxicity as evidenced by test animal total body weight” value ([1]; MDA-MB-231 tumor study, 2 μmol/kg TIW for two weeks) of the same compound?
Answer: Toxicity was not observed

Question: What about the “MDA-MB-231 tumors compared to untreated control” value (MDA-MB-231 tumors) of the same compound?
Answer: decreases MDA-MB-231 tumors; also recorded: decreased triple negative breast cancer (TNBC) MDA-MB-231 tumors

Question: And the “complete response, number of test animals, MDA-MB-231 tumors” value (MDA-MB-231 tumors)?
Answer: 5/5

Question: And the “cure, number of test animals, MDA-MB-231 tumors” value (MDA-MB-231 tumors)?
Answer: 4/5

Question: With `N.N.[Cl][Pt][Cl]` [cisplatin] as the compound, how does the “tumor response to cisplatin therapy” value (KB-CR2000 tumors) read?
Answer: did not produce even a single partial response

Question: What does the source list for `C=C1C[C@H]2C=Nc3cc(OCCCCCOc4cc(N)c(C(=O)N5CC(=C)C[C@H]5C5OCCN5C(=O)OCCSSC[C@H](NC(=O)[C@H](CC(=O)O)NC(=O)[C@H](CC(=O)O)NC(=O)[C@H](CCCNC(=N)N)NC(=O)[C@H](CC(=O)O)NC(=O)CC[C@H](NC(=O)c5ccc(NCc6cnc7nc(N)[nH]c(=O)c7n6)cc5)C(=O)O)C(=O)O)cc4OC)c(OC)cc3C(=O)N2C1` (stereo partly shown) [EC1788]?
Answer: IC50 (KB cells; KB cells, 3H-thymidine incorporation, read-out: IC50 KB Cells): 0.18 nM; toxicity as evidenced by test animal total body weight ([1]; KB tumor study, 0.2 μmol/kg TIW for two weeks): Minor toxicity was observed; toxicity as evidenced by test animal total body weight ([1]; KB tumor study, 0.4 μmol/kg BIW for 2 weeks): Minor toxicity was observed
